# Results as given in EPA's ToxRefDB 2.
# Key:
# [1] = tested on: rat; details: Fertility (Segment I), sprague dawley, Oral, Gavage/Intubation, dose end: 7 GD
# [2] = tested on: rabbit; details: Prenatal developmental toxicity study, new zealand white, Oral, Gavage/Intubation, dose end: 19 GD
# [3] = group: maternal, reproductive / offspring survival early / litter viability other / total litter loss + reproductive / reproductive performance / estrous …
# [4] = group: maternal, reproductive / reproductive performance / fertility / fertility + reproductive / reproductive performance / precoital interval / precoital …
# [5] = group: parental, systemic / in life observation / clinical signs / alopecia + systemic / in life observation / body weight / body weight gain + systemic / in…
# [6] = group: developmental, systemic / in life observation / body weight / fetal weight
# [7] = group: maternal, systemic / in life observation / body weight / body weight gain + systemic / in life observation / clinical signs / defecation + systemic / …
compound,measurement,setting,value
CCc1c(C(=O)NN2CCCCC2)nn(-c2ccc(Cl)cc2Cl)c1-c1ccc(Br)cc1 [Surinabant],LOAEL,[1]; [3],> 1000 mg/kg/day
same,NOAEL,[1]; [3],≥ 1000 mg/kg/day
same,LEL,[1]; [4],10 mg/kg/day
same,NEL,[1]; [4],< 10 mg/kg/day
same,LEL,[1]; [5],10 mg/kg/day
same,LOAEL,[1]; [5],> 1000 mg/kg/day
same,NEL,[1]; [5],< 10 mg/kg/day
same,NOAEL,[1]; [5],≥ 1000 mg/kg/day
same,LEL,[2]; [6],1 mg/kg/day
same,LOAEL,[2]; [6],> 20 mg/kg/day
same,NEL,[2]; [6],< 1 mg/kg/day
same,NOAEL,[2]; [6],≥ 20 mg/kg/day
same,LEL,[2]; [7],1 mg/kg/day
same,LOAEL,[2]; [7],> 20 mg/kg/day
same,NEL,[2]; [7],< 1 mg/kg/day
same,NOAEL,[2]; [7],≥ 20 mg/kg/day
